ChEMBL document CHEMBL5385892, “Advances in the development of phosphodiesterase-4 inhibitors” (Eur J Med Chem, 2023)

Tests used:
Phosphodiesterase 3 = Phosphodiesterase 3 (Homo sapiens, UniProt Q14432+Q13370); assay: Inhibition of PDE3 (unknown origin); type: protein assay
[1] = biological target: T1, Phosphodiesterase isozyme 4 (Homo sapiens, UniProt Q86V67); assay: Inhibition of PDE4 (unknown origin)
T1 sequence (Q86V67 whole entry): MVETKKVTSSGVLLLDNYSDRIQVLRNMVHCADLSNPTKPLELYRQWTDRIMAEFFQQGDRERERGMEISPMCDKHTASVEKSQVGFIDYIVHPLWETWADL

SMILES	IC50 (Phosphodiesterase 3)	IC50 [1]
O=C(Cc1c(Cl)c[n+]([O-])cc1Cl)c1ccc(OC(F)F)c2c1OC1(CCS(=O)(=O)CC1)O2 [ORISMILAST]	0.4 nM	1480 nM
COc1ccc(C2=NN(CCCCCc3ccccc3)C(=O)CC2)cc1OC	–	0.9 nM
CNc1nc(-c2cccc(NC(=O)c3ccc(C(=O)OC)cc3)c2)c2cc(OC)c(OC)cc2n1 [LOTAMILAST]	–	2.8 nM
CCOc1cc(C(CS(C)(=O)=O)N2C(=O)c3csc(NC(C)=O)c3C2=O)ccc1OC (stereo not given)	–	26 nM
